# Assay results from US4202967A, “N,N-pentamethylene derivatives of daunomycin and adriamycin” (SRI International, priority 1978, dated 1980).
# Where a name gives a salt, the structure may show the parent alone. Read-outs that look alike come from different tables or passages of the source.
# Experiments:
# [1] = tested on: DNA synthesis in L1210 cells; experiment: Inhibition of DNA synthesis (incorporation of tritiated 3H-thymidine) in cultured L1210 cells; type: cell-based; conditions: Mus musculus
# Protocol: (§1) Also presented in the table are the results of in vitro tests using cultured L1210 cells in which the activity of each chemical enumerated in the following table is presented in relation to its potency as an inhibitor of nucleic acid synthesis. Data for daunomycin and adriamycin are also included in the table for the sake of comparison. More specifically, the inhibition of the synthesis of DNA and RNA by each compound was measured as a function of its activity in inhibiting incorporation of tritiated ^3 H-thymidine or ^3 H-uridine into DNA and RNA, respectively. ED50 represents the concentration, in micromolar units, which inhibits incorporation of 50% of tritiated ^3 H-thymidine or ^3 H-uridine into the DNA and RNA of the test cells.
# (§2) ^a ΔTm and Ed50 values were determined by the method of G.
# (§3) Tong, W. W. Lee, D. R. Black, and D. W. Henry, J. Med. Chem., 19, 395
# (§4) (1976), except that the drugs were initially dissolved in a volume of DMS
# (§5) the assay medium. This modification greatly aided solubilization and did
# (§6) not affect assay results, according to extensive control experiments.
# [2] = tested on: RNA synthesis in L1210 cells; experiment: Inhibition of RNA synthesis (incorporation of tritiated 3H-uridine) in cultured L1210 cells; type: cell-based; conditions: for IC50: Mus musculus; for Nucleic Acid Syn Inhibn, ED50 ratio DNA/RNA: ED50 DNA divided by ED50 RNA
# Protocol: as §1, §2, §3, §4, §5, §6
# [3] = tested on: P388 lymphocytic leukemia; experiment: Antitumor activity in mice (P388, qd 1-9); type: in vivo; conditions: ip; for T/C (P388, qd 1-9): at optimal dose, days 1-9, ratio of average survival times treated/untreated, active if T/C ≥ 125; for Opt. Dose (P388, qd 1-9): days 1-9
# Protocol: (§7) As indicated above, the compounds of the present invention have improved antitumor activity. This is evidenced by the data given below. In one operation, conducted in accordance with Protocol 1200 set forth in Cancer Chemotherapy Reports, National Cancer Institute, Vol. 3, No. 2, Part 3, September 1972, healthy mice were inoculated i.p. with Limphocytic Leukemia P-388 ascitic fluid. The inoculated mice were then treated i.p. for the succeeding 9 day period with varying amounts of the test chemicals of Example 2 while others of the mice were similarly inoculated with adrimycin hydrochloride and with daunomycin hydrochloride, the dosage pattern being set forth in the table given below. The average survival times of the treated mice was then determined, as was that of the control mice, which were inoculated with the ascitic fluid but given no treatment with the test chemicals. Presented in the following table under the T/C column headings are data obtained by dividing the survival time of the treated mice with that of the control mice, the quotient so obtained being multiplied by 100.
# (§8) ^b Assays arranged through Drug Research and Development Program,
# (§9) Division of Cancer Treatment, National Cancer Institute. BDF or CDF mice
# (§10) are injected ip with […] P388 lymphocytic leukemia cells on Day 0
# (§11) and are treated ip on Days 1-9 or days 5, 9, 13 with the specified drug
# (§12) dose. For detailed protocols see R. I. Geran, N. H. Greenberg, M. M.
# (§13) MacDonald, A. M. Schumacher, and B. J. Abbott, Cancer Chemother. Rep.,
# (§14) ^c Ratio of average survival times of treated mice to untreated
# (§15) controls in percent. The average survival time of untreated controls is
# (§16) approximately 11 days. Activity is defined as values of T/C ≥ 120
# (§17) in the qd 5, 9, 13 protocol and T/C ≥ 125 in the qd 1-9 protocol.
# [4] = tested on: P388 lymphocytic leukemia; experiment: Antitumor activity in mice (P388, qd 5,9,13); type: in vivo; conditions: ip; for T/C (P388, qd 5,9,13): at optimal dose, days 5, 9, 13, ratio of average survival times treated/untreated, active if T/C ≥ 120; for Opt. Dose (P388, qd 5,9,13): days 5, 9, 13
# Protocol: as §7, §8, §9, §10, §11, §12, §13, §14, §15, §16, §17
# ΔTm = type: binding; conditions: drugs initially dissolved in DMSO; final DMSO 5%
# Protocol: as §2, §3, §4, §5, §6
# [5] = L1210, read-out: Nucleic Acid Syn Inhibn, ED50 DNA
# [6] = L1210, read-out: Nucleic Acid Syn Inhibn, ED50 RNA
Compound,"IC50 [1, 5] [nM]","IC50 [2, 6] [nM]","T/C (P388, qd 1-9) [3] [%]","Opt. Dose (P388, qd 1-9) [3] [mg/kg]","T/C (P388, qd 5,9,13) [4] [%]","Opt. Dose (P388, qd 5,9,13) [4] [mg/kg]",ΔTm (ΔTm) [°C],"Nucleic Acid Syn Inhibn, ED50 ratio DNA/RNA ([2]; L1210 cells)","IC50 ([1]; L1210 cells, 3H-thymidine incorporation, 50% inhibition, final DMSO 1%, read-out: Nucleic Acid Syn Inhibn, ED50 DNA) [nM]","IC50 ([2]; L1210 cells, 3H-uridine incorporation, 50% inhibition, final DMSO 1%, read-out: Nucleic Acid Syn Inhibn, ED50 RNA) [nM]"
COc1cccc2c1C(=O)c1c(O)c3c(c(O)c1C2=O)C[C@@](O)(C(C)=O)C[C@@H]3O[C@H]1C[C@H](N)[C@H](O)[C@H](C)O1 [Daunomycin hydrochloride],660,330,160,0.78,132,8,–,–,–,–
"COc1cccc2c1C(=O)c1c(O)c3c(c(O)c1C2=O)C[C@@](O)(C(O)CO)C[C@@H]3O[C@H]1C[C@H](N2CCCCC2)[C@H](O)[C@H](C)O1 (stereo partly drawn) [N,N-Pentamethylene-13-dihydroadriamycin]",720,100,157,1.56,143,18,12.5,7.2,–,–
COc1cccc2c1C(=O)c1c(O)c3c(c(O)c1C2=O)C[C@@](O)(C(=O)CO)C[C@@H]3O[C@H]1C[C@H](N)[C@H](O)[C@H](C)O1 [Adriamycin hydrochloride],1500,580,197,0.78,159,8,13.4,2.6,–,–
"COc1cccc2c1C(=O)c1c(O)c3c(c(O)c1C2=O)C[C@@](O)(C(=O)CO)C[C@@H]3O[C@H]1C[C@H](N2CCCCC2)[C@H](O)[C@H](C)O1 [N,N-Pentamethyleneadriamycin]",–,–,190,3.13,155,9.4,15.4,17.5,700,40
